According to publication PMC4457826 (PLoS Pathogens, 2015):

Key:
USP7-NTD = assay: GST pull-down, USP7-NTD; assay type: binding, human; settings: USP7 domain mapping, Fig 1B/1E, listed as GST-ICP0 615–629
Excerpt: (§1) Next we determined which region of USP7-CTD interacted with the ICP0 615–629 peptide. FL-USP7, USP7-CTD as well as Ubl12, Ubl123, Ubl345 and Ubl45 (Fig 1B) were used as prey in GST pull-down assays using GST-ICP0 615–629. FL-USP7 and USP7-CTD were used as positive controls while GST alone and USP7-NTD were used as negative controls.
(§2) The ICP0, GMPS and UHRF1 WT and mutant peptides were cloned into pGEX-2TK and expressed in E. coli BL21(DE3). GST-ICP0 594–775 was obtained from Roger Everett. The GST-ICP0 or GST-GMPS or GST-UHRF1 or GST-ICP0 594–775 cell pellets from 500 ml of LB broth were re-suspended with PBS and lysed using sonication. The cleared lysates were applied to 500 μl of equilibrated glutathione-sepharose beads and incubated with rocking for 60 min at 4°C. Unbound proteins were removed by washing with PBS. Bound proteins were eluted with 50 mM Tris pH 8.0 and 100 mM NaCL containing 30 mM reduced glutathione. Equal amounts (250 μg) of the various USP7 proteins were incubated with 250 μg of the GST-ICP0 or GST-GMPS or GST-UHRF1 or GST-ICP0 594–775 peptides in 50 mM Tris pH 8.0, 100 mM NaCl, 5 mM DTT, 5% glycerol, 0.1 mM Benzamidine and 0.05 mM PMSF, applied to equilibrated glutathione-sepharose beads and incubated overnight with rocking at 4°C. After extensive washing, bound proteins were eluted with 50 mM Tris pH 8.0 and 100 mM NaCl containing 30 mM reduced glutathione.

USP7-CTD mutant E759A = assay: GST pull-down, USP7-CTD E759A; assay type: binding, human
Experimental: (§3) Fragments representing USP7-CTD Ubl domains were prepared using ligation independent cloning with In-Fusion (Clontech) in p15TV-L. The boundaries of the Ubl domain constructs are Ubl12 (535–776), Ubl123 (535–889), Ubl345 (776–1102), Ubl45 (886–1102) and USP7-CTD (535–1102). Plasmids expressing USP7-NTD, USP7, and myc-USP7 WT (pCANmycUSP7) were described previously. USP7 mutants E759A, D762A, D764A and D762A/D764A in Ubl123 were synthesized (Genscript) and inserted into the pET15b plasmid. USP7 mutants E759A, D762A, D764A, D762A/D764A and D762R/D764R in USP7-CTD were prepared by ACGT Corporation. The D762R/D764R mutant was then sub-cloned into wild-type pCANmycUSP7 for co-IP assays. The mammalian ICP0 expression construct pCI-110 ICP0 was obtained from Roger Everett.
(§4) The ICP0, GMPS and UHRF1 WT and mutant peptides were cloned into pGEX-2TK and expressed in E. coli BL21(DE3). GST-ICP0 594–775 was obtained from Roger Everett. The GST-ICP0 or GST-GMPS or GST-UHRF1 or GST-ICP0 594–775 cell pellets from 500 ml of LB broth were re-suspended with PBS and lysed using sonication. The cleared lysates were applied to 500 μl of equilibrated glutathione-sepharose beads and incubated with rocking for 60 min at 4°C. Unbound proteins were removed by washing with PBS. Bound proteins were eluted with 50 mM Tris pH 8.0 and 100 mM NaCL containing 30 mM reduced glutathione. […]

USP7-CTD = target: T1, USP7-CTD (Homo sapiens, UniProt Q93009); assay: GST pull-down, USP7-CTD; assay type: binding
T1 construct: USP7-CTD (535–1102); His tag (inferred from nickel-NTA purification; vector p15TV-L); made in house; host or cells: E. coli BL21(DE3)mgk
Experimental: as §3, §2

Ubl123 mutant D764A = target: T2, Ubl123 mutant D764A (Homo sapiens, UniProt Q93009, D764A); assay: GST pull-down, Ubl123 D764A; assay type: binding; settings: Fig 3F
T2 construct: Ubl123 (535–889); (vector pET15b); made in house; host or cells: E. coli BL21(DE3)mgk
Experimental: as §3, §4

USP7-CTD mutant D762A = assay: GST pull-down, USP7-CTD D762A; assay type: binding, human
Experimental: as §3, §2

USP7 Ubl345 = assay: GST pull-down, Ubl345; assay type: binding, human; settings: USP7 domain mapping, Fig 1B/1E, listed as GST-ICP0 615–629
Experimental: as §3, §4

Ubl123 mutant D762A = target: T3, Ubl123 mutant D762A (Homo sapiens, UniProt Q93009, D762A); assay: GST pull-down, Ubl123 D762A; assay type: binding; settings: Fig 3F
T3 construct: Ubl123 (535–889); (vector pET15b); made in house; host or cells: E. coli BL21(DE3)mgk
Experimental: as §3, §4

USP7-CTD mutant D764A = assay: GST pull-down, USP7-CTD D764A; assay type: binding, human
Experimental: as §3, §4

[1] = system: USP7-CTD mutant D762A/D764A; assay: GST pull-down, USP7-CTD D762A/D764A; assay type: binding, human
Experimental: as §3, §2

[2] = target: T4, Ubl123 mutant D762A/D764A (Homo sapiens, UniProt Q93009, D762A/D764A); assay: GST pull-down, Ubl123 D762A/D764A; assay type: binding; settings: Fig 3F
T4 construct: Ubl123 (535–889); (vector pET15b); made in house; host or cells: E. coli BL21(DE3)mgk
Experimental: as §3, §4

USP7 Ubl45 = assay: GST pull-down, Ubl45; assay type: binding, human; settings: USP7 domain mapping, Fig 1B/1E, listed as GST-ICP0 615–629
Experimental: as §3, §4

FL-USP7 = assay: GST pull-down, USP7-FL; assay type: binding, human
Experimental: The USP7 binding region is found within ICP0 residues 594–633 and mutagenesis studies have shown that K620 is essential for the interaction. In order to facilitate crystallization and structure determination, we set out to identify a shorter peptide that is capable of binding to USP7. To this end, a series of overlapping GST-ICP0 fusions (591–605, 595–609, 599–613, 603–617, 607–621, 611–625, 615–629, 619–633) were prepared (see Fig 1A for sequence details) and used in GST pull-down assays. […] Overall, our GST pull-down assays identified ICP0 residues between 619 and 629 as important mediators of USP7 binding in agreement with a previous study.
as §1, §2

USP7 Ubl12 = target: T5, USP7 Ubl12 (Homo sapiens, UniProt Q93009); assay: GST pull-down, Ubl12; assay type: binding; settings: USP7 domain mapping, Fig 1B/1E, listed as GST-ICP0 615–629
T5 construct: Ubl12 (535–776); His tag (inferred from nickel-NTA purification; vector p15TV-L); made in house; host or cells: E. coli BL21(DE3)mgk
Experimental: as §3, §4

Ubl123 mutant E759A = target: T6, Ubl123 mutant E759A (Homo sapiens, UniProt Q93009, E759A); assay: GST pull-down, Ubl123 E759A; assay type: binding; settings: Fig 3F
T6 construct: Ubl123 (535–889); (vector pET15b); made in house; host or cells: E. coli BL21(DE3)mgk
Experimental: as §3, §4

USP7 Ubl123 = target: T7, USP7 Ubl123 (Homo sapiens, UniProt Q93009); assay: GST pull-down, Ubl123; assay type: binding; settings: USP7 domain mapping, Fig 1B/1E, listed as GST-ICP0 615–629
T7 construct: Ubl123 (535–889); His tag (inferred from nickel-NTA purification; vector p15TV-L); made in house; host or cells: E. coli BL21(DE3)mgk
Experimental: as §3, §2

[3] = system: USP7-CTD mutant D762R/D764R; assay: GST pull-down, USP7-CTD D762R/D764R; assay type: binding, human
Experimental: as §3, §4

[4] = GST pull-down, USP7 domain mapping, Fig 1B/1E, listed as GST-ICP0 615–629

T1 sequence (Q93009 535-1102): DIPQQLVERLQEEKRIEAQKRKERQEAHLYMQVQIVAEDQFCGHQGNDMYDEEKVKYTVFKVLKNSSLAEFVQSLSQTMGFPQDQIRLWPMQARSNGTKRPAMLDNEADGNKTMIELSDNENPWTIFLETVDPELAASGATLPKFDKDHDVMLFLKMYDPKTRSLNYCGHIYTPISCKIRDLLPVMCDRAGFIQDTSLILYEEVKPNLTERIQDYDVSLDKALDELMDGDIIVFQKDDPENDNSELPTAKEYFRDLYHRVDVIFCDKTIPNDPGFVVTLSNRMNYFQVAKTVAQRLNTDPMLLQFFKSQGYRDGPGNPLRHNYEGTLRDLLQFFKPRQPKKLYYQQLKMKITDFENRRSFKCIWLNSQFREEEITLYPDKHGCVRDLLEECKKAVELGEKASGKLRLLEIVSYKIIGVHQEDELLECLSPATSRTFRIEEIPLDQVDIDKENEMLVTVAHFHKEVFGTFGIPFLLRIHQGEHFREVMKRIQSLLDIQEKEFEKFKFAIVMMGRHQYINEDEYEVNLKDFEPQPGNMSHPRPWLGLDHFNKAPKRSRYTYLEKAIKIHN
T3 sequence (Q93009 535-889 D762A): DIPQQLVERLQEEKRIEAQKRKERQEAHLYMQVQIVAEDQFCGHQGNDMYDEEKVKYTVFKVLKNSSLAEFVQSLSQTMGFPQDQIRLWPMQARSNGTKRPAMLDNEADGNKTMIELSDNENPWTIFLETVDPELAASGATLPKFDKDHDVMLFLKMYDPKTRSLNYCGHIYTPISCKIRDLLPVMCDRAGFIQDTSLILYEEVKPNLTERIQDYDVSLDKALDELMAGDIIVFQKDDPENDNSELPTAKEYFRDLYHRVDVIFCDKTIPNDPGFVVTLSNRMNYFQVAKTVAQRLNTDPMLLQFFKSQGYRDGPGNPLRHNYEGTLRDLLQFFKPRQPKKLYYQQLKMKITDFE
T4 sequence (Q93009 535-889 D762A/D764A): as the sequence (Q93009 535-889 D762A) above, with D230A counted along it
T6 sequence (Q93009 535-889 E759A): as the sequence (Q93009 535-889 D762A) above, with E225A, A228D counted along it
T5 sequence (Q93009 535-776): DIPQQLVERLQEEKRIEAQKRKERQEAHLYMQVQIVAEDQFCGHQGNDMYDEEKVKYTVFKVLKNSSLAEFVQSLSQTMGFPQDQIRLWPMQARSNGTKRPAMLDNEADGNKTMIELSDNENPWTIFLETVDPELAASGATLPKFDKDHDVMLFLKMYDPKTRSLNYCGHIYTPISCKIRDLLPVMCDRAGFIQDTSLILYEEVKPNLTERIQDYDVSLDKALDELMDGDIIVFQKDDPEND
T7 sequence (Q93009 535-889): as the sequence (Q93009 535-889 D762A) above, with A228D counted along it
T2 sequence (Q93009 535-889 D764A): as the sequence (Q93009 535-889 D762A) above, with A228D, D230A counted along it

Sequence	Interaction with ICP0 615-629: USP7-NTD (USP7-NTD)	Binding to USP7-CTD mutant E759A (USP7-CTD mutant E759A)	Interaction with USP7-CTD (overlapping GST-ICP0 peptides) (USP7-CTD; GST fusions 250 μg + USP7-CTD 250 μg, 50 mM Tris pH 8.0, 100 mM NaCl, 5 mM DTT, 5% glycerol, overnight 4°C, Coomassie stained gel, Fig 1A/1D, symbols not defined)	Interaction with ICP0 615-629: USP7-CTD (USP7-CTD; [4])	Binding to Ubl123 mutant D764A (Ubl123 mutant D764A)	Binding to USP7-CTD mutant D762A (USP7-CTD mutant D762A)	Interaction with ICP0 615-629: Ubl345 (USP7 Ubl345)	Binding to Ubl123 mutant D762A (Ubl123 mutant D762A)	Binding to USP7-CTD mutant D764A (USP7-CTD mutant D764A)	Binding to USP7-CTD mutant D762A/D764A [1]	Binding to Ubl123 mutant D762A/D764A [2]	Interaction with ICP0 615-629: Ubl45 (USP7 Ubl45)	Interaction with USP7-FL (overlapping GST-ICP0 peptides) (FL-USP7; GST fusions 250 μg + USP7 250 μg, 50 mM Tris pH 8.0, 100 mM NaCl, 5 mM DTT, 5% glycerol, overnight 4°C, Coomassie stained gel, Fig 1A/1C, symbols not defined)	Interaction with ICP0 615-629: USP7-FL (FL-USP7; [4])	Interaction with ICP0 615-629: Ubl12 (USP7 Ubl12)	Binding to Ubl123 mutant E759A (Ubl123 mutant E759A)	Interaction with ICP0 615-629: Ubl123 (USP7 Ubl123)	Binding to USP7-CTD mutant D762R/D764R [3]
PRGPRKCARKTRHAE [ICP0 615–629, GST-ICP0 fusion of ICP0 residues 615–629]	not USP7-NTD	Binding was abolished	strongest interaction	FL-USP7 as well as USP7-CTD but not USP7-NTD or GST alone interacted	Binding was abolished	Binding was abolished	no interaction	Binding was abolished	Binding was abolished	Binding was abolished	Binding was abolished	no interaction	strongest interaction	FL-USP7 as well as USP7-CTD but not USP7-NTD or GST alone interacted	interacted	Binding was abolished	interacted	–
TGKGKWKR [UHRF1 peptide, UHRF1 peptide with KxxxK motif, residues 642–649]	–	–	–	–	–	disrupted	–	–	–	disrupted	–	–	–	–	–	–	–	disrupted
